Data taken from publication PMC11753388, “Bispecific Thio‐Linked Disaccharides as Inhibitors of Pseudomonas Aeruginosa Lectins LecA (PA‐IL) and LecB (PA‐IIL): Dual‐Targeting Strategy” (Chemistry (Weinheim an Der Bergstrasse, Germany), 2024).
Like-named read-outs stand apart in the source and are kept apart here.

Legend:
[1] = biological target: T1, LecB (PA-IIL) (Pseudomonas aeruginosa, UniProt Q9HYN5); experiment: yeast agglutination inhibition, microscopy; format: biochemical; conditions: LecB 625 μg/ml, yeast cells; complete inhibition
T1 construct: soluble calcium-dependent homotetramer, one site per monomer
T1 sequence (Q9HYN5 entry or part of it): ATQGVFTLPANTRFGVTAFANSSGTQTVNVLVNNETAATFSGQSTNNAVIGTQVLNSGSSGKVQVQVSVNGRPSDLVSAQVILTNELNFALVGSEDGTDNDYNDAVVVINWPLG
From the text: yeast agglutination inhibition, microscopy on LecB (PA-IIL)

[2] = biological target: T2, LecA (PA-IL) (Pseudomonas aeruginosa, UniProt Q05097); experiment: hemagglutination inhibition, microscopy; format: biochemical; conditions: LecA 125 μg/ml, group O red blood cells; complete inhibition
T2 construct: soluble calcium-dependent homotetramer, one site per monomer
T2 sequence (Q05097 2-122): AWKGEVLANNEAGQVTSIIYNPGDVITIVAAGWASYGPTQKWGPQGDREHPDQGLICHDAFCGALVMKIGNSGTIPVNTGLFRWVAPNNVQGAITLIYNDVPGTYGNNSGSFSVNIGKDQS
From the text: hemagglutination inhibition, microscopy on LecA (PA-IL)

[3] = biological target: T2, LecA (PA-IL); experiment: isothermal titration calorimetry; format: binding
From the text: isothermal titration calorimetry on LecA (PA-IL)

[4] = biological target: T1, LecB (PA-IIL); experiment: isothermal titration calorimetry; format: binding

`C[C@@H]1O[C@@H](S[C@H]2O[C@H](CO)[C@@H](O)[C@H](O)[C@H]2O)[C@@H](O)[C@H](O)[C@@H]1O` [compound 26, Thio‐L‐Fuc‐α(1,1)α‐D‐Glc] was tested, and the “LecB / MIC” value [1] was 6.10 µM.
`C[C@H]1O[C@H](S[C@H]2O[C@H](CO)[C@H](O)[C@H](O)[C@H]2O)[C@H](O)[C@@H](O)[C@H]1O` [compound 28, Thio‐D‐Fuc‐α(1,1)α‐D‐Gal] was tested, and the “LecA / MIC” value [2] was 390 µM.
For `C[C@@H]1O[C@@H](S[C@@H]2O[C@@H](C)[C@@H](O)[C@@H](O)[C@@H]2O)[C@@H](O)[C@H](O)[C@@H]1O` [compound 25, Thio‐L‐Fuc‐α(1,1)α‐L‐Fuc], the “LecB / MIC” value [1] was 6.10 µM.
With `OC[C@H]1OC(O)[C@H](O)[C@@H](O)[C@H]1O` (stereo partly drawn) [D-Galactose] the Kd ([3]; read-out: LecA / KD, 300 μM lectin, 2 mM ligand, non-sigmoid curve, n apparent) was 175 µM.
For `OC[C@H]1O[C@H](S[C@H]2O[C@H](CO)[C@@H](O)[C@H](O)[C@H]2O)[C@H](O)[C@@H](O)[C@H]1O` [compound 30, Thio‐D‐Gal‐α(1,1)α‐D‐Glc], the “LecA / MIC” value [2] was 390 µM.
Work on `C[C@@H]1O[C@@H](S[C@@H]2O[C@H](CO)[C@H](O)[C@H](O)[C@H]2O)[C@@H](O)[C@H](O)[C@@H]1O` [compound 14, Thio‐L‐Fuc‐α(1,1)β‐D‐Gal] yielded a Kd [4] of 0.35 µM and a Kd [3] of 115 µM.
`OC[C@H]1O[C@H](S[C@H]2O[C@H](CO)[C@H](O)[C@H](O)[C@H]2O)[C@H](O)[C@@H](O)[C@H]1O` [compound 29, Thio‐D‐Gal‐α(1,1)α‐D‐Gal] was tested, and the “LecA / MIC” value [2] was 97.5 µM.
`C[C@@H]1O[C@@H](S[C@H]2O[C@H](CO)[C@H](O)[C@H](O)[C@H]2O)[C@@H](O)[C@H](O)[C@@H]1O` [compound 27, Thio‐L‐Fuc‐α(1,1)α‐D‐Gal] was tested, and the Kd [4] was 0.19 µM and the Kd [3] was 55.6 µM.
